Measured values published in patent US20230092890A1, “1, 3, 4-Oxadiazole derivative compounds as histone deacetylase 6 inhibitor, and the pharmaceutical composition comprising the same” (Chong Kun Dang Pharmaceutical Corp., priority 2019, published 2023).

Legend:
HDAC6 human recombinant = target: T1, HDAC6 human recombinant (Homo sapiens, UniProt Q9UBN7); assay: HDAC enzyme activity inhibition (in vitro), HDAC6 assay; assay type: biochemical; conditions: samples at 0.1, 1, 10, 100 and 1000 nM; 37° C. 60 minutes; fluorescence Ex 390, Em 460; read-out: HDAC6 IC50
T1 construct: purchased Calbiochem 382180
T1 sequence (Q9UBN7 1-1215): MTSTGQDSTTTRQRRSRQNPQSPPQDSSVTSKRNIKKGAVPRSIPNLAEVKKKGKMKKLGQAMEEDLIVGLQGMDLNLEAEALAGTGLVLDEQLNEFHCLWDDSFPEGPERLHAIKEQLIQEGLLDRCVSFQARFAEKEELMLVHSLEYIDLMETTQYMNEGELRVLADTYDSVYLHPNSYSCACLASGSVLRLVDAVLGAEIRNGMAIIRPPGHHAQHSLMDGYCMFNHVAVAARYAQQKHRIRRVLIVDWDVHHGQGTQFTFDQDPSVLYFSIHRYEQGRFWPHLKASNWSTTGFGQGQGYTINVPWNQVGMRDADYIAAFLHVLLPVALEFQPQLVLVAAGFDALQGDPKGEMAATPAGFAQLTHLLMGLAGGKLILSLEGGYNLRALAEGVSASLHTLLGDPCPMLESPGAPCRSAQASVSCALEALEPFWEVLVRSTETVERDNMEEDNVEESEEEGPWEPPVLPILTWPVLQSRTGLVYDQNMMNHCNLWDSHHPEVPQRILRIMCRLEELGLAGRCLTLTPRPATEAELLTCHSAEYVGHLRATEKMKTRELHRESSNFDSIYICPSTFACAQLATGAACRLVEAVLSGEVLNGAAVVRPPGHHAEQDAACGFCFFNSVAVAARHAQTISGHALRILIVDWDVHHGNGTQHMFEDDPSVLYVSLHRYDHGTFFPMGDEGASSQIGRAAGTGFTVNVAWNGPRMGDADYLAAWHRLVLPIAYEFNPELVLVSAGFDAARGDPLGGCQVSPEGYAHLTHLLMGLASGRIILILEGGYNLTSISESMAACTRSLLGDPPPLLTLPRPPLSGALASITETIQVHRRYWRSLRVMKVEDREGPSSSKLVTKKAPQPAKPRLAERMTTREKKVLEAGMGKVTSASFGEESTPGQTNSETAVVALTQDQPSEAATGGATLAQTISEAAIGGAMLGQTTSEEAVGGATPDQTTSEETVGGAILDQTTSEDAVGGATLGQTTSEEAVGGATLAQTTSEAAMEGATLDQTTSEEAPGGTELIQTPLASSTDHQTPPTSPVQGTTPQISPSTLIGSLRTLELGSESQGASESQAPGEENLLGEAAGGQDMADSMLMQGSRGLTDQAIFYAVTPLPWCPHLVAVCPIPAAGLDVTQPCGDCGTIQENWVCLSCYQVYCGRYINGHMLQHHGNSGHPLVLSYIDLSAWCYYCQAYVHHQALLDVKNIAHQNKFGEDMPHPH
In short: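 Fluorescence (Ex 390, Em 460) read after a 37° C, 60 min enzyme reaction and a further 30 min developer step at 37° C. Uses recombinant human HDAC6; HDAC1 arm dosed at 100, 1000, 10000 nM.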

HDAC1 = target: T2, HDAC1 (Homo sapiens, UniProt Q13547); assay: HDAC enzyme activity inhibition (in vitro), HDAC1 Fluorimetric Drug Discovery Assay Kit; assay type: biochemical; conditions: samples at 100, 1000 and 10000 nM; 37° C. 60 minutes; fluorescence Ex 390, Em 460; read-out: HDAC1 IC50
T2 construct: purchased Enzolifesciences BML-AK511
T2 sequence (Q13547 whole entry): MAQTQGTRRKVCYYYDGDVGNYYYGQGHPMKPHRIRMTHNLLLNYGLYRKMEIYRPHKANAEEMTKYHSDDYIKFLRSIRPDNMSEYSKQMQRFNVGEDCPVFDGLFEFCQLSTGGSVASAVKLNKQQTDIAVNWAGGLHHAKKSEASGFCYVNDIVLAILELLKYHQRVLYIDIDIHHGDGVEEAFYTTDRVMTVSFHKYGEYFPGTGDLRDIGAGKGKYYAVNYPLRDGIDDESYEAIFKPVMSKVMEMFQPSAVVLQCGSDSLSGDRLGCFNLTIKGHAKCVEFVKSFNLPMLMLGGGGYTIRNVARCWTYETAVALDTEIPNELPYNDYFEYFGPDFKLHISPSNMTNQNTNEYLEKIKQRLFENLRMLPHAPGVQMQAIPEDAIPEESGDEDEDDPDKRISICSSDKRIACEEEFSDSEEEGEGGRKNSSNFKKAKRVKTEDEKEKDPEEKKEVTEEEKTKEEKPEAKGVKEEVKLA
In short: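 Fluorescence read-out (Ex 390/Em 460) after developer step, 30 min at 37° C, following a 60-min 37° C enzyme reaction. Test concentrations: HDAC1 kit, 100–10000 nM (three levels); recombinant human HDAC6, 0.1–1000 nM (five levels).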

Row | Compound | IC50 (HDAC6 human recombinant) [nM] | IC50 (HDAC1) [µM]
1 | O=c1n(Cc2ccc(-c3nnc(C(F)F)o3)cn2)c2cc(F)c(-c3cccc4[nH]ccc34)cc2n1[C@@H]1CCN(C2COC2)C1 [Compound 288, (R)-1-((5-(5-(difluoromethyl)-1,3,4-oxadiazole-2-yl)pyridine-2-yl)methyl)-6-fluoro-5-(1H-indole-4-yl)-3-(1-(oxetan-3-yl)pyrrolidine-3-yl)-1,3-dihydro-2H-benzo[d]imidazole-2-one] | 10 | > 10
2 | O=c1n(Cc2ccc(-c3nnc(C(F)F)o3)cn2)c2cc(F)c(-c3cccc4[nH]ccc34)cc2n1CC1CCN(C2COC2)CC1 [Compound 289, 1-((5-(5-(difluoromethyl)-1,3,4-oxadiazole-2-yl)pyridine-2-yl)methyl)-6-fluoro-5-(1H-indole-4-yl)-3-((1-(oxetan-3-yl)piperidine-4-yl)methyl)-1,3-dihydro-2H-benzo[d]imidazole-2-one] | 4 | > 10
3 | O=c1n(Cc2ccc(-c3nnc(C(F)F)o3)cn2)c2cc(F)c(-c3cccnc3)cc2n1CC1CCN(C2COC2)CC1 [Compound 290, 1-((5-(5-(difluoromethyl)-1,3,4-oxadiazole-2-yl)pyridine-2-yl)methyl)-6-fluoro-3-((1-(oxetan-3-yl)piperidine-4-yl)methyl)-5-(pyridine-3-yl)-1,3-dihydro-2H-benzo[d]imidazole-2-one] | 7 | > 10
4 | O=c1n(Cc2ccc(-c3nnc(C(F)F)o3)cn2)c2cc(F)c(-c3ccncc3)cc2n1CC1CCN(C2COC2)CC1 [Compound 291, 1-((5-(5-(difluoromethyl)-1,3,4-oxadiazole-2-yl)pyridine-2-yl)methyl)-6-fluoro-3-((1-(oxetan-3-yl)piperidine-4-yl)methyl)-5-(pyridine-4-yl)-1,3-dihydro-2H-benzo[d]imidazole-2-one] | 9 | > 10
5 | O=c1n(Cc2ccc(-c3nnc(C(F)F)o3)cn2)c2cc(F)c(-c3cn[nH]c3)cc2n1CC1CCN(C2COC2)CC1 [Compound 292, 1-((5-(5-(difluoromethyl)-1,3,4-oxadiazole-2-yl)pyridine-2-yl)methyl)-6-fluoro-3-((1-(oxetan-3-yl)piperidine-4-yl)methyl)-5-(1H-pyrazole-4-yl)-1,3-dihydro-2H-benzo[d]imidazole-2-one] | 3 | > 10
6 | O=c1n(Cc2ccc(-c3nnc(C(F)F)o3)cn2)c2cc(F)c(-c3cccc4[nH]ccc34)cc2n1[C@@H]1CCCN(C2COC2)C1 [Compound 295, (R)-1-((5-(5-(difluoromethyl)-1,3,4-oxadiazole-2-yl)pyridine-2-yl)methyl)-6-fluoro-5-(1H-indole-4-yl)-3-(1-(oxetan-3-yl)piperidine-3-yl)-1,3-dihydro-2H-benzo[d]imidazole-2-one] | 10 | > 10
7 | CCN1CCC[C@H](n2c(=O)n(Cc3ccc(-c4nnc(C(F)F)o4)cn3)c3cc(F)c(-c4ccncc4)cc32)C1 [Compound 300, (S)-1-((5-(5-(difluoromethyl)-1,3,4-oxadiazole-2-yl)pyridine-2-yl)methyl)-3-(1-ethylpiperidine-3-yl)-6-fluoro-5-(pyridine-4-yl)-1,3-dihydro-2H-benzo[d]imidazole-2-one] | 13 | > 10
8 | O=c1n(Cc2ccc(-c3nnc(C(F)F)o3)cn2)c2cc(F)ccc2n1CC1CCN(C2COC2)CC1 [Compound 301, 3-((5-(5-(difluoromethyl)-1,3,4-oxadiazole-2-yl)pyridine-2-yl)methyl)-5-fluoro-1-((1-(oxetan-3-yl)piperidine-4-yl)methyl)-1,3-dihydro-2H-benzo[d]imidazole-2-one] | 29 | > 10
9 | O=c1n(Cc2ccc(-c3nnc(C(F)F)o3)cn2)c2cc(F)ccc2n1C1CN(C2COC2)C1 [Compound 302, 3-((5-(5-(difluoromethyl)-1,3,4-oxadiazole-2-yl)pyridine-2-yl)methyl)-5-fluoro-1-(1-(oxetan-3-yl)azetidine-3-yl)-1,3-dihydro-2H-benzo[d]imidazole-2-one] | 38 | > 10

The next lines start with the values.

Row | IC50 (HDAC6 human recombinant) [nM] | IC50 (HDAC1) [µM] | Compound
10 | 9 | > 10 | O=c1n(Cc2ccc(-c3nnc(C(F)F)o3)cn2)c2cc(F)c(-c3cccnc3)cc2n1[C@@H]1CCN(C2COC2)C1 [Compound 286, (R)-1-((5-(5-(difluoromethyl)-1,3,4-oxadiazole-2-yl)pyridine-2-yl)methyl)-6-fluoro-3-(1-(oxetan-3-yl)pyrrolidine-3-yl)-5-(pyridine-3-yl)-1,3-dihydro-2H-benzo[d]imidazole-2-one]
11 | 14 | > 10 | O=c1n(Cc2ccc(-c3nnc(C(F)F)o3)cn2)c2cc(F)c(-c3ccncc3)cc2n1[C@@H]1CCN(C2COC2)C1 [Compound 287, (R)-1-((5-(5-(difluoromethyl)-1,3,4-oxadiazole-2-yl)pyridine-2-yl)methyl)-6-fluoro-3-(1-(oxetan-3-yl)pyrrolidine-3-yl)-5-(pyridine-4-yl)-1,3-dihydro-2H-benzo[d]imidazole-2-one]
12 | 8 | > 10 | O=c1n(Cc2ccc(-c3nnc(C(F)F)o3)cn2)c2cc(F)c(-c3cccnc3)cc2n1[C@@H]1CCCN(C2COC2)C1 [Compound 293, (R)-1-((5-(5-(difluoromethyl)-1,3,4-oxadiazole-2-yl)pyridine-2-yl)methyl)-6-fluoro-3-(1-(oxetan-3-yl)piperidine-3-yl)-5-(pyridine-3-yl)-1,3-dihydro-2H-benzo[d]imidazole-2-one]
13 | 11 | > 10 | O=c1n(Cc2ccc(-c3nnc(C(F)F)o3)cn2)c2cc(F)c(-c3ccncc3)cc2n1[C@@H]1CCCN(C2COC2)C1 [Compound 294, (R)-1-((5-(5-(difluoromethyl)-1,3,4-oxadiazole-2-yl)pyridine-2-yl)methyl)-6-fluoro-3-(1-(oxetan-3-yl)piperidine-3-yl)-5-(pyridine-4-yl)-1,3-dihydro-2H-benzo[d]imidazole-2-one]
14 | 5 | > 10 | O=c1n(Cc2ccc(-c3nnc(C(F)F)o3)cn2)c2cc(F)c(-c3cn[nH]c3)cc2n1[C@@H]1CCCN(C2COC2)C1 [Compound 296, (R)-1-((5-(5-(difluoromethyl)-1,3,4-oxadiazole-2-yl)pyridine-2-yl)methyl)-6-fluoro-3-(1-(oxetan-3-yl)piperidine-3-yl)-5-(1H-pyrazole-4-yl)-1,3-dihydro-2H-benzo[d]imidazole-2-one]
15 | 10 | > 10 | O=c1n(Cc2ccc(-c3nnc(C(F)F)o3)cn2)c2cc(F)c(-c3cccnc3)cc2n1[C@H]1CCCN(C2COC2)C1 [Compound 297, (S)-1-((5-(5-(difluoromethyl)-1,3,4-oxadiazole-2-yl)pyridine-2-yl)methyl)-6-fluoro-3-(1-(oxetan-3-yl)piperidine-3-yl)-5-(pyridine-3-yl)-1,3-dihydro-2H-benzo[d]imidazole-2-one]
16 | 9 | > 10 | CCN1CCC[C@H](n2c(=O)n(Cc3ccc(-c4nnc(C(F)F)o4)cn3)c3cc(F)c(-c4cccnc4)cc32)C1 [Compound 298, (S)-1-((5-(5-(difluoromethyl)-1,3,4-oxadiazole-2-yl)pyridine-2-yl)methyl)-3-(1-ethylpiperidine-3-yl)-6-fluoro-5-(pyridine-3-yl)-1,3-dihydro-2H-benzo[d]imidazole-2-one]
17 | 13 | > 10 | O=c1n(Cc2ccc(-c3nnc(C(F)F)o3)cn2)c2cc(F)c(-c3ccncc3)cc2n1[C@H]1CCCN(C2COC2)C1 [Compound 299, (S)-1-((5-(5-(difluoromethyl)-1,3,4-oxadiazole-2-yl)pyridine-2-yl)methyl)-6-fluoro-3-(1-(oxetan-3-yl)piperidine-3-yl)-5-(pyridine-4-yl)-1,3-dihydro-2H-benzo[d]imidazole-2-one]
